The text below walks through data of patent publication US20100081690A1, “OXAZOLE DERIVATIVES AS POSITIVE ALLOSTERIC MODULATORS OF METABOTROPIC GLUTAMATE RECEPTORS” (ADDEX PHARMA SA, priority 2006, published 2010).

The target of one data set is T1, rat mGluR5 (Rattus norvegicus, UniProt P31424).
T1 construct: expressed in transfected cells
Kind of data set: mGluR5 assay on HEK-expressing rat mGluR5 (fluorescent cell based Ca2+ mobilization). The note with it: for activation of rat mGluR5 receptors: HEK-rat mGluR5 cell line, without co-addition of glutamate or mGluR5 agonist; for EC50: HEK-293 cells stably expressing rat mGluR5, no co-addition of glutamate, mean of at least three independent experiments in duplicate, read-out: Ca2+ Flux (mean EC50). The procedure:
Positive functional expression of HEK-293 cells stably expressing rat mGluR5 receptor was determined by measuring intracellular Ca^2+ changes using a Fluorometric Imaging Plate Reader (FLIPR, Molecular Devices, Sunnyvale, Calif.) in response to glutamate or selective known mGluR5 agonists and antagonists. Rat mGluR5RT-PCR products in HEK-293 cells were sequenced and found 100% identical to rat mGluR5Genbank reference sequence (NM_017012). HEK-293 cells expressing rmGluR5 were maintained in media containing DMEM, dialyzed Fetal Bovine Serum (10%), Glutamax™ (2 mM), Penicillin (100 units/ml), Streptomycin (100 μg/ml), Geneticin (100 μg/ml) and Hygromycin-B (40 μg/ml) at 37° C./5% CO2.
After one day of incubation, cells were washed with assay buffer containing: 142 mM NaCl, 6 mM KCl, 1 mM […], 1 mM CaCl2, 20 mM HEPES, 1 g/L glucose, 0.125 mM sulfinpyrazone, pH 7.4. After 60 min of loading with 4 uM Fluo-4 (TefLabs, Austin, Tex.), the cells were washed three times with 50 μl of PBS Buffer and resuspended in 45 μl of assay Buffer. The plates were then transferred to a Fluorometric Imaging Plate Reader (FLIPR, Molecular Devices, Sunnyvale, Calif.) for the assessment of intracellular calcium flux. After monitoring the baseline fluorescence for 10 seconds, increasing concentrations of representative compound (from 0.01 to 60 μM) of the present invention diluted in Assay Buffer (15 μl of 4× dilutions) was added to the cell. The final DMSO concentration in the assay was 0.3%. In each experiment, fluorescence was then monitored as a function of time for 3 minutes and the data analyzed using Microsoft Excel and GraphPad Prism. Each data point was also measured two times.
Under these experimental conditions, this HEK-rat mGluR5 cell line is able to directly detect positive allosteric modulators without the need of co-addition of glutamate or mGluR5 agonist.
The concentration-response curves of representative compounds of the present invention were generated using the Prism GraphPad software (Graph Pad Inc, San Diego, USA). The curves were fitted to a four-parameter logistic equation:
(Y=Bottom+(Top-Bottom)/(1+10̂((Log EC50−X)*Hill Slope)
allowing determination of EC50 values.
The Table 1 below represents the mean EC50 obtained from at least three independent experiments of selected molecules performed in duplicate.
On the technique in general: A change in cytosolic calcium serves as a functional read-out for many receptors and channels.

The target in the next data set is T2, mGluR5 (Rattus norvegicus, UniProt P31424).
T2 construct: positive allosteric modulators of mGluR5 receptors in native preparations; endogenous in cells; host or cells: primary cortical astrocytes from Sprague-Dawley rat embryos (E16-19)
The note with it: Liu et al (2006), Zhang et al (2005); cited from earlier work.

Where only a bound is given, the exact number is not on record here.

T2 sequence (P31424 21-1203): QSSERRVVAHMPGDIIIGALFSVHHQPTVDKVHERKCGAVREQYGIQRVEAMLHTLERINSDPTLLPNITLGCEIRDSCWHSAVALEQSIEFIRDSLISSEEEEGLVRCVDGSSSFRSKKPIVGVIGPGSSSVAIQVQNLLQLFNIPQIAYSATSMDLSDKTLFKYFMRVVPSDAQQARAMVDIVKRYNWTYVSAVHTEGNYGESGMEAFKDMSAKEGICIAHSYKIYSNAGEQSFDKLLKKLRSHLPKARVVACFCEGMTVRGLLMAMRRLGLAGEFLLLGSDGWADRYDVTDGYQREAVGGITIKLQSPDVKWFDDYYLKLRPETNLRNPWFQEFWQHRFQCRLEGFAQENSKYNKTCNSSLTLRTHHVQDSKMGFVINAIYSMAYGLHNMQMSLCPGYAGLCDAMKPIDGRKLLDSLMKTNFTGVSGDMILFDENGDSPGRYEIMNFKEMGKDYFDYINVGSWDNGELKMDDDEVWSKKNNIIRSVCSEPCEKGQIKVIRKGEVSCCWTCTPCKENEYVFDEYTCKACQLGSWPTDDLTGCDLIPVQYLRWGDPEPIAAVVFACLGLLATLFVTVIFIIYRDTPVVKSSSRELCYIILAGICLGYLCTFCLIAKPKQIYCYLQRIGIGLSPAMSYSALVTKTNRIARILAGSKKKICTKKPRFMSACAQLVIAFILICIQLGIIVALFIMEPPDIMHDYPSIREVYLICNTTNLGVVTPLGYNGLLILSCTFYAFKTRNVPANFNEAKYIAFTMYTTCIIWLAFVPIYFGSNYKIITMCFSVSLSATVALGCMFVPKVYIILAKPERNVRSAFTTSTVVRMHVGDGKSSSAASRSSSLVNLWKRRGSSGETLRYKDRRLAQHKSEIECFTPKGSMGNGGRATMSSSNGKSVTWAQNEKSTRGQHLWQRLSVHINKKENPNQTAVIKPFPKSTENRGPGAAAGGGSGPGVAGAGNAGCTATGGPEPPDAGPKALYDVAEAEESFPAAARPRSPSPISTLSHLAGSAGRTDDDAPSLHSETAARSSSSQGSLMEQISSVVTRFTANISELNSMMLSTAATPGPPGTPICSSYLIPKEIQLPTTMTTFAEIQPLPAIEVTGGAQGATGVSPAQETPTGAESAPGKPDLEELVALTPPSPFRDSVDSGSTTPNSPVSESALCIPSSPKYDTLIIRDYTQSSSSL
T1 sequence (P31424 21-1171 isoform P31424-2 limits assumed): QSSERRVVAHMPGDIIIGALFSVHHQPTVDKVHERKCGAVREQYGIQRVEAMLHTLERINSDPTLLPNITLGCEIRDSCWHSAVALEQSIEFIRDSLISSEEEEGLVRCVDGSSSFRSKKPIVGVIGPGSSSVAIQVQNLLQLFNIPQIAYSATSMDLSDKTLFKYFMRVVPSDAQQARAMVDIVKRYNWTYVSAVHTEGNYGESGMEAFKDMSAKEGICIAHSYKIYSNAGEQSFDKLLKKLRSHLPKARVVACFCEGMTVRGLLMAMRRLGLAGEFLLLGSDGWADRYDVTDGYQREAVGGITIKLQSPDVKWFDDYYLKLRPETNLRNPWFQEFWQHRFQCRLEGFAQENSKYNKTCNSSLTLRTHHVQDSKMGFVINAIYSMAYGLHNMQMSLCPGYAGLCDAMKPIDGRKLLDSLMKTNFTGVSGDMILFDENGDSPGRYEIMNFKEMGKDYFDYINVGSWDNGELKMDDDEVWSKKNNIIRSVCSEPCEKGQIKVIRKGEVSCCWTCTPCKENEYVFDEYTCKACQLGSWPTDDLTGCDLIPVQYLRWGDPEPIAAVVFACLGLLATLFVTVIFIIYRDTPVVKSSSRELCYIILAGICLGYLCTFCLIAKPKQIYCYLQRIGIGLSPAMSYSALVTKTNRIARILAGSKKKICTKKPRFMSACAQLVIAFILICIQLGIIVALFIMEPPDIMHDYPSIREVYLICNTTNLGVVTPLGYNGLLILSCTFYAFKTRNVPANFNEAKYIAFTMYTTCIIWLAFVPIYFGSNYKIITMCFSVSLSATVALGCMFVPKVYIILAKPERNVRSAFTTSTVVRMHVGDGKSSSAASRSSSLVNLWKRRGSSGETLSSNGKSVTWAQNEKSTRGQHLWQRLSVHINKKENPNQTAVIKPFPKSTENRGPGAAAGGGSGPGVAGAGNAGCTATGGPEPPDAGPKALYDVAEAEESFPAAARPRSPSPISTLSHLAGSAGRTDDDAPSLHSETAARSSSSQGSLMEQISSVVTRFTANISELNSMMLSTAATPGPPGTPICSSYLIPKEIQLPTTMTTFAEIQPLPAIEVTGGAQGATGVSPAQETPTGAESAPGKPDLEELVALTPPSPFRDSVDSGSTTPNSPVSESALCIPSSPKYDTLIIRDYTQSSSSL

As for `N#Cc1cccc(C(=O)Nc2cc(-c3ccccc3)nn2-c2ccccc2)c1` [CDPPB, reference compound], at rat mGluR5, the “activation of rat mGluR5 receptors” value was “activating”. Besides, the “activity in rat cortical astrocytes culture in the absence of added glutamate” value (shortened to “activity”) at mGluR5 was “inactive”. For the compound `O=C(Nc1ccc(Cl)cc1CN1C(=O)c2ccccc2C1=O)c1ccccc1O` [CPPHA, reference compound], the “activation of rat mGluR5 receptors” value on rat mGluR5 was “activating”. Besides, the “activity” value at mGluR5 is “inactive”. As for `Fc1cccc(/C=N/N=C/c2cccc(F)c2)c1` [DFB, reference compound], on rat mGluR5, the “activation of rat mGluR5 receptors” value is on record as “activating”. At mGluR5, the “activity” value is “inactive”. As usually defined, the melting point is the temperature, or range, at which the solid turns liquid. What is called EC50 is the concentration giving half of the maximal effect. For the compound `O=C(c1ccc(F)nc1)N1CCC[C@H](c2nc(-c3cc(F)c[nH]3)co2)C1` [Example 2, (6-Fluoro-pyridin-3-yl)-{(S)-3-[4-(4-fluoro-1H-pyrrol-2-yl)-oxazol-2-yl]-piperidin-1-yl}-methanone], the melting point was 123 °C. In addition, at rat mGluR5, the concentration giving a half-maximal response (EC50) was less than 1000 nM. Turning to `O=C(c1ccc(F)cc1)N1CCC[C@H](c2nc(-c3ccc(F)cc3)co2)C1` [Example 3, (4-Fluoro-phenyl)-{(S)-3-[4-(4-fluorophenyl)-oxazol-2-yl]-piperidin-1-yl}-methanone], on rat mGluR5, the EC50 was less than 1000 nM. Same read-out and setting: the figure for `O=C(c1ccc(F)nc1)N1CCC[C@H](c2nc(-c3ccc(F)cc3)co2)C1` [Example 4, (6-Fluoro-pyridin-3-yl)-{(S)-3-[4-(4-fluoro-phenyl)-oxazol-2-yl]-piperidin-1-yl}-methanone] is less than 1000 nM.

With `O=C(c1ccnc(F)c1)N1CCC[C@H](c2nc(-c3ccc(F)cc3)co2)C1` [Example 5, (2-Fluoro-pyridin-4-yl)-{(S)-3-[4-(4-fluoro-phenyl)-oxazol-2-yl]-piperidin-1-yl}-methanone], the EC50 at rat mGluR5 was less than 1000 nM. As for `O=C(c1ccncc1F)N1CCC[C@H](c2nc(-c3ccc(F)cc3)co2)C1` [Example 6, (3-Fluoro-pyridin-4-yl)-{(S)-3-[4-(4-fluoro-phenyl)-oxazol-2-yl]-piperidin-1-yl}-methanone], the EC50 at rat mGluR5 was less than 1000 nM. On the same count and under the same terms, the figure for `Cc1oncc1C(=O)N1CCC[C@H](c2nc(-c3ccc(F)cc3)co2)C1` [Example 7, (S)-(3-(4-(4-Fluoro-phenyl)-oxazol-2-yl)-piperidin-1-yl)(5-methyl-isoxazol-4-yl)-methanone] is less than 1000 nM; for `O=C(c1ccc(F)cc1)N1CCC[C@H](c2nc(-c3ccccn3)co2)C1` [Example 8, (S)-(4-Fluoro-phenyl)(3-(4-(pyridin-2-yl)-oxazol-2-yl)-piperidin-1-yl)-methanone] it is less than 1000 nM. Still for that read-out and setting: the value for `O=C(c1ccc(F)c(F)c1)N1CCC[C@H](c2nc(-c3ccccn3)co2)C1` [Example 9, (S)-(3,4-Difluoro-phenyl)(3-(4-(pyridin-2-yl)-oxazol-2-yl)-piperidin-1-yl)-methanone] was less than 1000 nM; that for `O=C(c1ccc(F)cc1)N1CCC[C@H](c2nc(-c3ccc(F)cn3)co2)C1` [Example 10, (S)-(4-Fluoro-phenyl)(3-(4-(5-fluoro-pyridin-2-yl)-oxazol-2-yl)-piperidin-1-yl)-methanone] was less than 1000 nM; that for `O=C(c1ccc(F)cc1)N1CCC[C@H](c2nc(-c3ccccc3F)co2)C1` [Example 11, (S)-(4-Fluoro-phenyl)(3-(4-(2-fluoro-phenyl)-oxazol-2-yl)-piperidin-1-yl)-methanone] was less than 1000 nM. Same read-out and setting: the value for `O=C(c1ccc(F)nc1)N1CCC[C@H](c2nc(-c3ccccc3F)co2)C1` [Example 12, (S)-(3-(4-(2-Fluoro-phenyl)-oxazol-2-yl)-piperidin-1-yl)(6-fluoro-pyridin-3-yl)-methanone] was less than 1000 nM; that for `O=C(c1ccnc(F)c1)N1CCC[C@H](c2nc(-c3ccccc3F)co2)C1` [Example 13, (S)-(3-(4-(2-Fluoro-phenyl)-oxazol-2-yl)-piperidin-1-yl)(2-fluoro-pyridin-4-yl)-methanone] was less than 1000 nM; that for `O=C(c1ccc(F)cc1)N1CCC[C@H](c2nc(-c3ccc(F)cc3F)co2)C1` [Example 14, (S)-(3-(4-(2,4-Difluoro-phenyl)-oxazol-2-yl)-piperidin-1-yl)(4-fluoro-phenyl)-methanone] was less than 1000 nM. Take `O=C(c1ccc(F)nc1)N1CCC[C@H](c2nc(-c3ccc(F)cc3F)co2)C1` [Example 15, (S)-(3-(4-(2,4-Difluoro-phenyl)-oxazol-2-yl)-piperidin-1-yl)(6-fluoro-pyridin-3-yl)-methanone]: at rat mGluR5, the EC50 was 1000 to 10000 nM. Still for that read-out and setting: the figure for `O=C(c1ccnc(F)c1)N1CCC[C@H](c2nc(-c3ccc(F)cc3F)co2)C1` [Example 16, (S)-(3-(4-(2,4-Difluoro-phenyl)-oxazol-2-yl)-piperidin-1-yl)(2-fluoro-pyridin-4-yl)-methanone] is less than 1000 nM.
